Assay results reported in patent publication US8211935B2, “Heterocyclic derivatives for modulation of calcium channels” (Vertex Pharmaceuticals Incorporated, priority 2004, dated 2012).
Where two headings read alike, the source gives them in different places.

Target: T1, CaV2.2 (Homo sapiens, UniProt Q00975)
T1 construct: expressed in transfected cells; host or cells: HEK293
Experiment: VIPR optical membrane potential assay with electrical stimulation
Type: cell-based
Procedure, shortened: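 HEK293 cells stably expressing CaV2.2, stained with CC2-DMPE (10 μM final) and oxonol voltage-sensitive dyes, compound added with BaCl2. Membrane potential response evoked by 3-5 s electrical stimulation. Read as background-subtracted 460/580 nm emission ratio, response R=Rf/Ri, normalized to mibefradil positive and no-drug negative controls.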

[1] = Table 3, biological assay data, read-out: IC50

T1 sequence (Q00975 whole entry): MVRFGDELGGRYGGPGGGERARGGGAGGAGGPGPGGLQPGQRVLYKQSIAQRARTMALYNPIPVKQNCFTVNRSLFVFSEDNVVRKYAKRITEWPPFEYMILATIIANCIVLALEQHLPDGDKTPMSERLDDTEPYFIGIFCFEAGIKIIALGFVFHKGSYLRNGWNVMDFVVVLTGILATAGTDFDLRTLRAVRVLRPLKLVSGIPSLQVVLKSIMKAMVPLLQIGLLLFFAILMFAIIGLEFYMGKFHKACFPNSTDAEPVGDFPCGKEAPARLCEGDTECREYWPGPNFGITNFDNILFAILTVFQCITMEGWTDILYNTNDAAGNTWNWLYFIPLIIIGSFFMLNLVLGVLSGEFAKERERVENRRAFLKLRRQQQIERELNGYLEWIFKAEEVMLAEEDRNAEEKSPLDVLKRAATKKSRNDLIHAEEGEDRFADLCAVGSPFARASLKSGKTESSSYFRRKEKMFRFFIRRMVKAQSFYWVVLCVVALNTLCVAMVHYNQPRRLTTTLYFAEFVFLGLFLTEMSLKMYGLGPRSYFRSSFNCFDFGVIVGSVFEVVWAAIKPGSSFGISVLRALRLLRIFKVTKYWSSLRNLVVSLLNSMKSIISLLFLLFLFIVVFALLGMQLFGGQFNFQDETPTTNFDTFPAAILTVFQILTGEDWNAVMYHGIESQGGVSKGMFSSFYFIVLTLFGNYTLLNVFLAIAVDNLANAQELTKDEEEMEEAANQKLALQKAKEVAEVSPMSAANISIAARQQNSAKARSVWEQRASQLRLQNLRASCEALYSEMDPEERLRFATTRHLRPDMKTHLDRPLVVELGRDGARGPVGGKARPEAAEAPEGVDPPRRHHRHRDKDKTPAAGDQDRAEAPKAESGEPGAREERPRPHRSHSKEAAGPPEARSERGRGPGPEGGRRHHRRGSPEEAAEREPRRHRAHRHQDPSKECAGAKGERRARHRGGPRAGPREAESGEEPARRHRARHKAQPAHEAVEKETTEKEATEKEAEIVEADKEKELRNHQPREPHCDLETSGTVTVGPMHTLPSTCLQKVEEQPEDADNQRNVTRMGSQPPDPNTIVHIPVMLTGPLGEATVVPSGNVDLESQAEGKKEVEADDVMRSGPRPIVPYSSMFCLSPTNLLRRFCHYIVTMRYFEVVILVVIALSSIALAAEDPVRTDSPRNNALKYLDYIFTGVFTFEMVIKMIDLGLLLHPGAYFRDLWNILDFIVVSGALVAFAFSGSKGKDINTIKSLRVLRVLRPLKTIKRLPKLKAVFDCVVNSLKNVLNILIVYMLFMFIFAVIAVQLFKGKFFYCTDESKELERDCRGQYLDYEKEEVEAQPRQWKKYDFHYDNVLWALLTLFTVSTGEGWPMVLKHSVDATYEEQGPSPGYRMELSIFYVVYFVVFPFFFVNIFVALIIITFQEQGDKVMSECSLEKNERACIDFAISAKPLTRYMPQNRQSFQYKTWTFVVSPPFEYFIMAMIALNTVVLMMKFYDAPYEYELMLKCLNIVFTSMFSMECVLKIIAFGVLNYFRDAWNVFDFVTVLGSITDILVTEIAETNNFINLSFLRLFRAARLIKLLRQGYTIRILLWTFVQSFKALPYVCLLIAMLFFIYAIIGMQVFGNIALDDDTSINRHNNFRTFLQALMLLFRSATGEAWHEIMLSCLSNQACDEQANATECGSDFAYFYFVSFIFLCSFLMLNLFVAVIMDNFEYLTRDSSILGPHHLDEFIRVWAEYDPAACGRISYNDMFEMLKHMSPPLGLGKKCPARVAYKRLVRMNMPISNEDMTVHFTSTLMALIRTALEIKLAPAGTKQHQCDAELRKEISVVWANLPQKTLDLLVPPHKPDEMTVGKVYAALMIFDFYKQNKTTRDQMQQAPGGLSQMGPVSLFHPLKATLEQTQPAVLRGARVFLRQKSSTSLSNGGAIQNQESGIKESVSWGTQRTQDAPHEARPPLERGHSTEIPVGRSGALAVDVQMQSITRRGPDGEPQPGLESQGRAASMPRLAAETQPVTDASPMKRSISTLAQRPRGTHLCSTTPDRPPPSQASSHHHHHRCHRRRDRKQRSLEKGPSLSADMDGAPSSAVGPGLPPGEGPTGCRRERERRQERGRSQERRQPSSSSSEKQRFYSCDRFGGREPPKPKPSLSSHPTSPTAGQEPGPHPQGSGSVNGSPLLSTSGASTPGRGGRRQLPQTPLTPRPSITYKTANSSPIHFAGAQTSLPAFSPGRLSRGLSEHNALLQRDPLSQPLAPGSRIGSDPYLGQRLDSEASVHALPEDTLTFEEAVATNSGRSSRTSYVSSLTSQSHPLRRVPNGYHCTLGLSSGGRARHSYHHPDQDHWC
T1 sequence (P54284 whole entry partner): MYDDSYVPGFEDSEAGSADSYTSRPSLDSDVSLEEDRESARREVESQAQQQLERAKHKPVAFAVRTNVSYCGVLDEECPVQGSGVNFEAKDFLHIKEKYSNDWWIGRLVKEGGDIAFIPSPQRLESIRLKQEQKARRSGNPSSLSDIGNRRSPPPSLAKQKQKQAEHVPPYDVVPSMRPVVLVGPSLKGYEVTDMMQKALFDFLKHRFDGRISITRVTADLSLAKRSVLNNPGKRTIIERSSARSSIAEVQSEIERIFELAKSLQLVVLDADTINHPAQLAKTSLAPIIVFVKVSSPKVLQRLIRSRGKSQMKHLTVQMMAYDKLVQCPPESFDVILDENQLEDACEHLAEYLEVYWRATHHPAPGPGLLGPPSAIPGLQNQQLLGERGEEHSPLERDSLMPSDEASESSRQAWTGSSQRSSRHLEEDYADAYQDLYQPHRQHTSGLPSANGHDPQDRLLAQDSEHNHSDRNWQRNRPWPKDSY
T1 sequence (P54289 25-946 partner limits assumed): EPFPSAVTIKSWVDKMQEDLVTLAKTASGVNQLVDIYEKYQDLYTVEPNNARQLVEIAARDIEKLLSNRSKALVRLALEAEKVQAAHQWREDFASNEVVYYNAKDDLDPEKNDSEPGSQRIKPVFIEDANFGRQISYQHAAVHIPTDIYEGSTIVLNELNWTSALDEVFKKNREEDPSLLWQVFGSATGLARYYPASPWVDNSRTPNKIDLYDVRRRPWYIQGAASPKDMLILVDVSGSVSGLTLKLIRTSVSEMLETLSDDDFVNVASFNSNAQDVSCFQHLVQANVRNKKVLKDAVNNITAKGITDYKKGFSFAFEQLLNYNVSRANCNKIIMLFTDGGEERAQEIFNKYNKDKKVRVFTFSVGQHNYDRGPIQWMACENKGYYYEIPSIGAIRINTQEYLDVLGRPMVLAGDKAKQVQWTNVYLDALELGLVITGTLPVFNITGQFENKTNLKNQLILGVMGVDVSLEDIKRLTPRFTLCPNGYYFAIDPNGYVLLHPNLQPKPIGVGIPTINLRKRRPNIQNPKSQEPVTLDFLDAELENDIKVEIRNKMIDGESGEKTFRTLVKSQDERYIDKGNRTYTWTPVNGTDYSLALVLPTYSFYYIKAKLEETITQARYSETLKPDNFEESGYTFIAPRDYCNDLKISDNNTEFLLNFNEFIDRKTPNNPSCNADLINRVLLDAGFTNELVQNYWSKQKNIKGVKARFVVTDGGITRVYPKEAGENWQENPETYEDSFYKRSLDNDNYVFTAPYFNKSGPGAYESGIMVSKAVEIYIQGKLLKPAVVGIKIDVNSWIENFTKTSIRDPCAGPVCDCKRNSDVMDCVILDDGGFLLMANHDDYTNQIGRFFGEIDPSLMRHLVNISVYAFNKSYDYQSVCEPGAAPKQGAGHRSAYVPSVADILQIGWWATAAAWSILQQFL
T1 sequence (P54289 947-1103 partner limits assumed): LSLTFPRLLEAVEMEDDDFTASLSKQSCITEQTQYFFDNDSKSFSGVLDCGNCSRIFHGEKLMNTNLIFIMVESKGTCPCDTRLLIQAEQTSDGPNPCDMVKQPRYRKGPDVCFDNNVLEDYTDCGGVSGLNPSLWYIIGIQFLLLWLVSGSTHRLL

SMILES	IC50 [1]	IC50
Cc1c(C(=O)NCc2ccccc2)oc2ccc(S(=O)(=O)N3CCC(C)CC3)cc12 [compound 189]	5 to 20 µM	
CC1CCN(C(=O)c2cc3cc(S(=O)(=O)N4CCCCCC4)ccc3o2)CC1 [compound 190]	< 5 µM	
CCN(CC)C(=O)c1cc2cc(S(=O)(=O)N3CC(C)CC(C)C3)ccc2n1CC(O)CN1CCN(C)CC1 (stereo not shown) [compound 191]	< 5 µM	
CNC(=O)c1cc2cc(S(=O)(=O)N3CCC(C)CC3)ccc2[nH]1 [compound 192]	< 5 µM	
Cc1c(C(=O)N2CCN(C)CC2)oc2ccc(S(=O)(=O)N3CC(C)CC(C)C3)cc12 (stereo not shown) [compound 193]	5 to 20 µM	
CC1CCN(C(=O)c2cc3cc(S(=O)(=O)N4CC(C)CC(C)C4)ccc3[nH]2)CC1 (stereo not shown) [compound 194]	< 5 µM	
Cc1c(C(=O)N2CCCC(C)C2)oc2ccc(S(=O)(=O)N3CCOCC3)cc12 (stereo not shown) [compound 195]	< 20 µM	
CCN(CC)C(=O)c1cc2cc(S(=O)(=O)N3CC(C)CC(C)C3)ccc2[nH]1 (stereo not shown) [compound 196]	< 5 µM	
Cc1c(C(=O)NCCC2=CCCCC2)oc2ccc(S(=O)(=O)N3CCOCC3)cc12 [compound 197]	< 20 µM	
CCOC(=O)N1CCN(C(=O)c2[nH]c3ccc(S(=O)(=O)N4CCC(C)CC4)cc3c2C)CC1 [compound 198]	5 to 20 µM	
CCN(CC)C(=O)c1oc2ccc(S(=O)(=O)N3CCCC(C)C3)cc2c1C (stereo not shown) [compound 199]	< 5 µM	
Cc1c(C(=O)NCC2COc3ccccc3O2)oc2ccc(S(=O)(=O)N(C)C3CCCCC3)cc12 (stereo not shown) [compound 200]	5 to 20 µM	
Cc1c(C(=O)NCCc2ccccc2)oc2ccc(S(=O)(=O)N3CCCCCC3)cc12 [compound 201]	< 5 µM	
CCN(CC)C(=O)c1oc2ccc(S(=O)(=O)N3CCCCC3)cc2c1C [compound 202]	5 to 20 µM	
Cc1c(C(=O)NCc2ccccn2)oc2ccc(S(=O)(=O)N3CCC(C)CC3)cc12 [compound 203]	5 to 20 µM	
Cc1c(C(=O)NC(C)C)oc2ccc(S(=O)(=O)N3CCC(F)(F)CC3)cc12 [compound 204]	5 to 20 µM	
Cc1c(C(=O)NCC2CCCO2)oc2ccc(S(=O)(=O)N3CCCC(C)C3)cc12 (stereo not shown) [compound 205]	5 to 20 µM	
Cc1c(C(=O)N(C)Cc2ccccc2)[nH]c2ccc(S(=O)(=O)N3CCC(C)CC3)cc12 [compound 206]	< 5 µM	
Cc1c(C(=O)NC2CC2)oc2ccc(S(=O)(=O)Nc3ccncc3)cc12 [compound 207]	< 20 µM	
CC1CCN(S(=O)(=O)c2ccc3oc(C(=O)N4CCCCC4C)cc3c2)CC1 (stereo not shown) [compound 208]	< 5 µM	
CC1CC(C)CN(S(=O)(=O)c2ccc3[nH]c(C(=O)NC4CC4)cc3c2)C1 (stereo not shown) [compound 209]	< 5 µM	
Cc1c(C(=O)NC2CC2)oc2ccc(S(=O)(=O)N3CCCC3)cc12 [compound 210]	< 20 µM	
CCOC(=O)N1CCN(C(=O)c2oc3ccc(S(=O)(=O)N4CCCCCC4)cc3c2C)CC1 [compound 211]	< 5 µM	
CCNC(=O)c1oc2ccc(S(=O)(=O)N3CC(C)CC(C)C3)cc2c1C (stereo not shown) [compound 212]	< 5 µM	
Cc1c(C(=O)N(C)Cc2ccccc2)oc2ccc(S(=O)(=O)N3CCCC(C)C3)cc12 (stereo not shown) [compound 213]	< 5 µM	
CNC(=O)c1oc2ccc(S(=O)(=O)N3CC(C)CC(C)C3)cc2c1C (stereo not shown) [compound 214]	< 5 µM	
CCN(CC)S(=O)(=O)c1ccc2oc(C(=O)NC3CCC(C)CC3)c(C)c2c1 (stereo not shown) [compound 215]	5 to 20 µM	

SMILES	IC50 [1]	IC50
CNC(=O)c1[nH]c2ccc(S(=O)(=O)N3CC(C)CC(C)C3)cc2c1C (stereo not shown) [compound 216]	< 5 µM	
CC1CC(C)CN(S(=O)(=O)c2ccc3[nH]c(C(=O)N(C(C)C)C(C)C)cc3c2)C1 (stereo not shown) [compound 217]	< 5 µM	
CC(C)NC(=O)c1cc2cc(S(=O)(=O)N3CCCCCC3)ccc2o1 [compound 218]	5 to 20 µM	
CC1CCN(S(=O)(=O)c2ccc3oc(C(=O)NC4CCCCC4)cc3c2)CC1 [compound 219]	5 to 20 µM	
CN1CCN(C(=O)c2cc3cc(S(=O)(=O)N4CCCCCC4)ccc3[nH]2)CC1 [compound 220]	5 to 20 µM	
CCNC(=O)c1[nH]c2ccc(S(=O)(=O)N3CC(C)CC(C)C3)cc2c1C (stereo not shown) [compound 221]	5 to 20 µM	
O=C(c1cc2cc(S(=O)(=O)N3CCCCCC3)ccc2o1)N1CCCC1 [compound 222]	5 to 20 µM	
Cc1c(C(=O)NCCCc2ccccc2)[nH]c2ccc(S(=O)(=O)N3CCC(C)CC3)cc12 [compound 223]	< 5 µM	
Cc1c(C(=O)NC2CC2)oc2ccc(S(=O)(=O)Nc3ccccc3)cc12 [compound 224]	5 to 20 µM	
CC1CC(C)CN(S(=O)(=O)c2ccc3oc(C(=O)NCCC4CCOCC4)cc3c2)C1 (stereo not shown) [compound 225]	< 5 µM	
CC1CC(C)CN(C(=O)c2cc3cc(S(=O)(=O)N4CCCCCC4)ccc3o2)C1 (stereo not shown) [compound 226]	< 5 µM	
Cc1c(C(=O)N2CCCC(C)C2)[nH]c2ccc(S(=O)(=O)N3CC(C)CC(C)C3)cc12 (stereo not shown) [compound 227]	< 5 µM	
Cc1c(C(=O)NC2CC2)oc2ccc(S(=O)(=O)Nc3ccc(F)cc3)cc12 [compound 228]	< 20 µM	
CCCCN(C)C(=O)c1cc2cc(S(=O)(=O)N3CC(C)CC(C)C3)ccc2o1 (stereo not shown) [compound 229]	< 5 µM	
CCN(CC)C(=O)c1cc2cc(S(=O)(=O)N3CC(C)CC(C)C3)ccc2n1CCCN(C)C (stereo not shown) [compound 230]	5 to 20 µM	
CC1CCN(S(=O)(=O)c2ccc3oc(C(=O)N4CCCC4)cc3c2)CC1 [compound 231]	5 to 20 µM	
Cc1c(C(=O)N2CCC3(CC2)OCCO3)[nH]c2ccc(S(=O)(=O)N3CCCCCC3)cc12 [compound 232]		5 to 20 µM
Cc1c(C(=O)N2CC(C)CC(C)C2)oc2ccc(S(=O)(=O)N3CCCC(C)C3)cc12 (stereo not shown) [compound 233]	< 5 µM	
CC1CCN(S(=O)(=O)c2ccc3oc(C(=O)NC(C)C)cc3c2)CC1 [compound 234]	< 5 µM	
CCOC(=O)N1CCN(C(=O)c2[nH]c3ccc(S(=O)(=O)N4CCCCCC4)cc3c2C)CC1 [compound 235]	5 to 20 µM	
Cc1c(C(=O)N2CCSCC2)oc2ccc(S(=O)(=O)N3CCC(C)CC3)cc12 [compound 236]	5 to 20 µM	
Cc1c(C(=O)NC2CC2)oc2ccc(S(=O)(=O)NCc3ccccc3)cc12 [compound 237]	< 20 µM	
Cc1c(C(=O)NCC2CCCO2)oc2ccc(S(=O)(=O)N3CCC(C)CC3)cc12 (stereo not shown) [compound 238]	5 to 20 µM	
Cc1c(C(=O)N2CCCCC2C)[nH]c2ccc(S(=O)(=O)N3CCC(C)CC3)cc12 (stereo not shown) [compound 239]	5 to 20 µM	
CC1CC(C)CN(S(=O)(=O)c2ccc3oc(C(=O)N4CCCCCC4)cc3c2)C1 (stereo not shown) [compound 240]	< 5 µM	
CC1CC(C)CN(S(=O)(=O)c2ccc3[nH]c(C(=O)N4CCCCC4C)cc3c2)C1 (stereo not shown) [compound 241]	< 5 µM	
Cc1c(C(=O)NCC2CCOCC2)oc2ccc(S(=O)(=O)N3CC(C)CC(C)C3)cc12 (stereo not shown) [compound 242]	< 5 µM	

SMILES	IC50 [1]	IC50
Cc1c(C(=O)N2CC(C)CC(C)C2)oc2ccc(S(=O)(=O)N3CCCCCC3)cc12 (stereo not shown) [compound 243]	5 to 20 µM	
CCN(CC)C(=O)c1cc2cc(S(=O)(=O)N3CCC(C)CC3)ccc2n1C [compound 244]	< 5 µM	
COc1ccccc1CNC(=O)c1oc2ccc(S(=O)(=O)N3CCCCCC3)cc2c1C [compound 245]	5 to 20 µM	
CC1CCN(S(=O)(=O)c2ccc3oc(C(=O)N4CCCCCC4)cc3c2)CC1 [compound 246]	< 5 µM	
Cc1c(C(=O)NC2CCCC2)oc2ccc(S(=O)(=O)N3CC(C)CC(C)C3)cc12 (stereo not shown) [compound 247]	< 5 µM	
O=C(NCCc1ccccc1)c1cc2cc(S(=O)(=O)N3CCCCCC3)ccc2[nH]1 [compound 248]	< 5 µM	
Cc1c(C(=O)NCC2CCCO2)oc2ccc(S(=O)(=O)N3CCCCCC3)cc12 (stereo not shown) [compound 249]	5 to 20 µM	
CCN(CC)S(=O)(=O)c1ccc2oc(C(=O)NCc3ccccc3)c(C)c2c1 [compound 250]	5 to 20 µM	
CC1CC(C)CN(S(=O)(=O)c2ccc3[nH]c(C(N)=O)cc3c2)C1 (stereo not shown) [compound 251]	5 to 20 µM	
O=C(c1cc2cc(S(=O)(=O)N3CCCCCC3)ccc2[nH]1)N1CCC2(CC1)OCCO2 [compound 252]		5 to 20 µM
Cc1c(C(=O)N2CCC3(CC2)OCCO3)[nH]c2ccc(S(=O)(=O)N3CC(C)CC(C)C3)cc12 (stereo not shown) [compound 253]		< 5 µM
CCCN(CC1CC1)C(=O)c1cc2cc(S(=O)(=O)N3CC(C)CC(C)C3)ccc2[nH]1 (stereo not shown) [compound 254]	< 5 µM	
COc1ccc(CNS(=O)(=O)c2ccc3oc(C(=O)NC4CC4)c(C)c3c2)cc1 [compound 255]	< 20 µM	
CCNC(=O)c1oc2ccc(S(=O)(=O)N3CCC(C)CC3)cc2c1C [compound 256]	5 to 20 µM	
Cc1c(C(=O)NC2CC2)oc2ccc(S(=O)(=O)N3CCCCC3)cc12 [compound 257]	< 20 µM	
Cc1c(C(=O)NC2CCCC2)[nH]c2ccc(S(=O)(=O)N3CCCCCC3)cc12 [compound 258]	5 to 20 µM	
Cc1c(C(=O)N(C)C)oc2ccc(S(=O)(=O)N3CCOCC3)cc12 [compound 259]	< 20 µM	
Cc1c(C(=O)NC2CCCC2)oc2ccc(S(=O)(=O)N3CCCCC3)cc12 [compound 260]	< 5 µM	
Cc1c(C(=O)NC2CC2)oc2ccc(S(=O)(=O)N(C)c3ccccn3)cc12 [compound 261]	< 20 µM	
Cc1c(C(=O)N(C(C)C)C(C)C)[nH]c2ccc(S(=O)(=O)N3CCC(C)CC3)cc12 [compound 262]	< 5 µM	
Cc1c(C(=O)N(C(C)C)C(C)C)oc2ccc(S(=O)(=O)N3CCCC(C)C3)cc12 (stereo not shown) [compound 263]	< 5 µM	
Cc1c(C(=O)NC(C)C)oc2ccc(S(=O)(=O)N3CCCC(F)(F)C3)cc12 [compound 264]	< 20 µM	
CCNC(=O)c1cc2cc(S(=O)(=O)N3CCCCCC3)ccc2o1 [compound 265]	5 to 20 µM	
CC1CCN(S(=O)(=O)c2ccc3oc(C(=O)NCCC4CCOCC4)cc3c2)CC1 [compound 266]	< 5 µM	
Cc1c(C(=O)NCc2ccccc2)oc2ccc(S(=O)(=O)N3CCOCC3)cc12 [compound 267]	< 20 µM	
